Data set [1] can be described thus: Urine elimination studies. Type of data set: in vivo, Sprague-Dawley rats. The conditions noted are these: rat, 1 mL of 2 mM in PBS by tail vein injection, 6 h post injection; mean ± SEM. Here is the method:
3.3. Urine elimination studies. Rat urine elimination studies are conducted in either conscious or anesthetized Sprague-Dawley rats. The test compound (1 mL, 2 mM in PBS) is administered by tail vein injection into conscious, restrained rats, with subsequent collection of urine at the time points of 2, 4 and 6 h post injection. The metabolic cages are washed with water to maximize the recovery of urine discharged at each time point. Alternatively, rats are anesthetized with 100 mg/kg Inactin intraperitoneally, a trachea tube is inserted to maintain adequate respiration, and 1 mL of test compound is injected into the lateral tail vein. Rats are placed on 37° C. heating pad during the entire experiment. At 6 h post injection, the abdomen is opened, and the urine is removed from the bladder using a 21 gauge needle and a 3 cc syringe. Quantitation of each compound in urine is performed via HPLC analysis using a set of external calibration standards and fluorescence detection. The percent recovery of compound in urine at each time point is calculated based on the balance of mass.

The nature of data set [2]: Photophysical properties (excitation and emission maxima in PBS). Particulars: 10 μM solution in PBS. Type of data set: physicochemical. Here is the method: 3.2. Photophysical properties and protein binding. In general, renally excretable compounds are dissolved in PBS buffer to form a 2 mM stock solution. The UV absorbance properties are determined on a 100 μM solution in PBS using a UV-3101PC UV-Vis-NIR Scanning spectrophotometer system from Shimadzu. The fluorescence properties (λex, λem, and CPS at λem) are determined on a 10 μM solution in PBS using a Fluorolog-3 spectrofluorometer system from Jobin Yvon Horiba. The percent plasma protein binding are determined on a 20 μM compound solution in rat plasma incubated at 37° C. for 1 h. The separation of free from bound is made using an Amicon Centrifree YM-30 device (Regenerated Cellulose 30,000 MWCO) and a Z400K Refrigerated Universal Centrifuge from Hermle. The concentration of protein-free is determined via HPLC analysis using a set of external calibration standards and fluorescence detection.

Data set [3] can be described thus: Invasive pharmacokinetic (PK) studies (plasma concentration by HPLC). Type of data set: in vivo, Sprague-Dawley rats. Particulars: rat, 1 mL of 2 mM solution i.v., plasma samples 0-120 min, mean ± SEM; for clearance: male, Sprague-Dawley, iv. Here is the method:
3.6. Invasive pharmacokinetic (PK) studies. Male Sprague-Dawley rats (330-380 g) are anesthetized by Inactin (I.P.). Rats are surgically instrumented with a trachea tube (PE-190) to facilitate breathing and femoral artery and vein catheters (PE-50 filled with 20 units/mL heparinized saline) for blood sampling and drug administration respectively. After administration of 1 mL of a 2 mM solution of agent, approximately 200 μL of blood is sampled and placed into a heparinized tube (Microtainer Brand Tube w/Lithium Heparin, BD 365971) at 0, 1, 6, 12, 18, 30, 45, 60, 90, 120 min. The concentration of compound in each centrifuged plasma sample is determined via HPLC analysis using a set of external calibration standards and fluorescence detection. The resulting pharmacokinetic parameters of the compound are analyzed using WinNonLin pharmacokinetic modeling software (Pharsight, Mountain View, Calif.). This method is used to detect renally excretable compounds of the invention and FIG. 8 provides a plot illustrating invasive PK (plasma concentration) as a function of time following delivery of a renally excretable compound.

A short description of data set [4]: Non-invasive optical pharmacokinetic studies (fluorescence at the ear). Particulars: rat, 1 mL of 2 mM solution into tail vein, fluorescence monitored at the ear; mean ± SEM. Type of data set: in vivo, Sprague-Dawley rats. The procedure: 3.4. Non-Invasive optical pharmacokinetic studies. Male Sprague-Dawley rats (330-380 g) are anesthetized by Inactin (I.P.) or 2% Isoflurane gas anesthesia delivered by a small rodent gas anesthesia machine (RC2, Vetequip, Pleasanton, Calif.). The animals are placed on a heated board where temperature is maintained between 36-38° C. One ear lobe is glued flat to a glass slide positioned approximately 2 mm beneath a fiber optic bundle for recording fluorescence from a test compound passing through the ear. After a 100 second baseline recording, 1 mL of a 2 mM solution is injected into the tail-vein of the rat and the fluorescence signal corresponding to plasma and tissue distribution and subsequent renal clearance of the compound is monitored at the ear. The pharmacokinetic parameters of the compounds are analyzed using WinNonLin pharmacokinetic modeling software (Pharsight, Mountain View, Calif.) and Microsoft (Redmond, Wash.) Excel. This method is used to detect renally excretable compounds of the invention and FIG. 6 provides a plot illustrating non-invasive in vivo fluorescence as a function of time following delivery of a renally excretable compound.
3.5. Optical monitoring apparatus and protocol. A nominal 473 nm solid state laser source (100) is employed (Power Technology model LDCU12/7314). […]

The values below come from patent US8697033B2, “Modified pyrazine derivatives and uses thereof” (Medibeacon, LLC, priority 2008, dated 2014).

Marks after values point to notes of the source that are not given here.

One may read the clearance as the rate of elimination divided by the concentration. A higher clearance goes with a high capacity for elimination. With `CCCNc1nc(C(=O)NCCOCCOCCOCCOCCOCCOCCOCCOCCOCCOCCOCCOCCOCCOCCOCCOCCOCCOCCOCCOCCOCCOCCOCCOC)c(NCCC)nc1C(=O)NCCOCCOCCOCCOCCOCCOCCOCCOCCOCCOCCOCCOCCOCCOCCOCCOCCOCCOCCOCCOCCOCCOCCOCCOC` [Compound 4, 3,6-Bis(propylamino)-N^2,N^5-di(2,5,8,11,14,17,20,23,26,29,32,35,38,41,44,47,50,53,56,59,62,65,68,71-tetracosaoxatriheptacontan-73-yl)pyrazine-2,5-dicarboxamide], the “Percent in Urine (6 hrs)” value in data set [1] is given as 85 ± 2 (3) Percent. For the same compound, in data set [2], the “Photophysical Properties Emission λmax” value was determined as 611 nm and the “Photophysical Properties Excitation λmax” value is recorded as 501 nm. Moreover, in data set [3], the clearance amounted to 4.3 ± 1.1 mL/min and the “Plasma PK Clearance T1/2β” value was 15.2 ± 6.7 (2) min. Moreover, the “Tissue clearance (Optical) T1/2β” value in data set [4] is listed as 20.5 ± 2.5 (3) min.
As to `CCCNc1nc(C(=O)NCCNC(=O)CCOCCOCCOCCOCCOCCOCCOCCOCCOCCOCCOCCOC)c(NCCC)nc1C(=O)NCCNC(=O)CCOCCOCCOCCOCCOCCOCCOCCOCCOCCOCCOCCOC` [Compound 1, N^2,N^5-Bis(38-oxo-2,5,8,11,14,17,20,23,26,29,32,35-dodecaoxa-39-azahentetracontan-41-yl)-3,6-bis(propylamino)pyrazine-2,5-dicarboxamide], in data set [2], the “Photophysical Properties Emission λmax” value is 613 nm and the “Photophysical Properties Excitation λmax” value was determined as 498 nm. In addition, in data set [3], the clearance turned out to be 3 ± 0.2 mL/min and the “Plasma PK Clearance T1/2β” value was 21.7 ± 1.3 (3)^b min.
